This is an account of results in ChEMBL document CHEMBL3352756, “Synthesis and evaluation of pyrazolines bearing benzothiazole as anti-inflammatory agents” (Bioorg Med Chem, 2014).

One may read the inhibition in vivo as the drop in the measured response relative to a control, in per cent. As a reminder, the inhibition is the percentage by which the read-out fell short of the control.

Some results are limits rather than exact numbers.

Data set [1] concerns Rattus norvegicus. As to the kind of experiment: Antiinflammatory activity in albino Wistar rat paw edema model assessed as inhibition of carrageenan-induced paw edema at 20 mg/kg, po administered 1 hr prior to carrageenan challenge measured after 3 to 5 hrs by plethysmometry relative to vehicle-treated control. It counts as functional. (In general: In the carrageenan paw model, swelling and tenderness develop within hours.)

Data set [2] relates to RAW264.7. The data set is described as follows: (§1) Cytotoxicity against mouse RAW264.7 cells assessed as cell viability at 20 uM after 24 hrs by MTT assay in presence of LPS. It counts as cell-based. The settings on record: raw264.7, 24 h, 20 µM. On the technique in general: Tetrazolium assays rely on reduction of a dye to a coloured formazan, in cell work by metabolically active cells.

Data set [3] has as its system RAW264.7. The data set is described as follows: Antiinflammatory activity in mouse RAW264.7 cells assessed as inhibition of LPS-induced TNF-alpha release at 20 uM after 24 hrs by ELISA. The data set is classed as functional. The settings on record: RAW264.7, 24 h. (In general: In an ELISA, binding on a coated surface is turned into a signal by an enzyme label.)
Data set [4] is described as follows: as §1. It counts as cell-based. The settings on record: RAW264.7 cells, read-out: Activity.
In data set [5] the test system is Rattus norvegicus. The data set is described as follows: Toxicity in rat assessed as ulceration at 60 mg/kg, po after 5 hrs. The data set is classed as organism-based. Further details: dose 60 mg/kg, route oral. The settings on record: in vivo.
In data set [6] the test system is Rattus norvegicus. As to the kind of experiment: Toxicity in rat assessed as damage to epithelial layer of stomach at 60 mg/kg, po after 5 hrs. The data set is classed as organism-based. The arrangement: dose 60 mg/kg, route oral. The settings on record: in vivo.

Regarding `COc1ccc(C2CC(c3ccc(Cl)cc3)=NN2c2nc3ccc(S(N)(=O)=O)cc3s2)cc1` (stereo unspecified), the inhibition in vivo at 20 mg/kg in the data set with Rattus norvegicus [1] is 67.7%. Besides, in the data set on RAW264.7 [2], the Activity entry is reported as “Toxic”. Moreover, the inhibition at 20 µM with RAW264.7 [3] amounted to 38%.

Turning to `NS(=O)(=O)c1ccc2nc(N3N=C(c4ccc(Cl)cc4)CC3c3ccccc3Cl)sc2c1` (stereo unspecified), the viability at 24 h, 20 µM in data set [4] is more than 90%. For the same molecule, the inhibition at 20 µM in the data set with RAW264.7 [3] came out at 38%. In addition, the Activity result with Rattus norvegicus [5] and in the data set on Rattus norvegicus [6] was “Non-toxic” each time.

Turning to `NS(=O)(=O)c1ccc2nc(N3N=C(c4ccc(Cl)cc4)CC3c3ccc(Cl)cc3)sc2c1` (stereo unspecified), the viability at 24 h, 20 µM in data set [4] was more than 90%. The inhibition at 20 µM in the data set with RAW264.7 [3] amounted to 38%. Besides, the Activity entry in the data set with Rattus norvegicus [5] and with Rattus norvegicus [6] was “Non-toxic” throughout.

Regarding `NS(=O)(=O)c1ccc2nc(N3N=C(c4ccc(Cl)cc4)CC3c3ccccc3)sc2c1` (stereo unspecified), in the data set on Rattus norvegicus [1], the inhibition in vivo at 20 mg/kg is 68.3%. In data set [4], the viability at 24 h, 20 µM was more than 90%. The inhibition at 20 µM with RAW264.7 [3] was determined as 72.2%. Further, the Activity entry in the data set on Rattus norvegicus [5] and in the data set on Rattus norvegicus [6] was “Non-toxic” throughout.

In the case of `NS(=O)(=O)c1ccc2nc(N3N=C(c4ccc(Cl)cc4)CC3c3ccc(F)cc3)sc2c1` (stereo unspecified), the viability at 24 h, 20 µM in data set [4] came to 86%. The inhibition at 20 µM with RAW264.7 [3] is 38%.

`Cc1ccc(C2CC(c3ccc(Cl)cc3)=NN2c2nc3ccc(S(N)(=O)=O)cc3s2)cc1` (stereo unspecified): in the data set with RAW264.7 [3], the inhibition at 20 µM worked out at 38%.

Turning to `NS(=O)(=O)c1ccc2nc(N3N=C(c4ccc(Br)cc4)CC3c3ccc(F)cc3)sc2c1` (stereo unspecified), the viability at 24 h, 20 µM in data set [4] was 86%. Moreover, in the data set on RAW264.7 [3], the inhibition at 20 µM was determined as 38%.

`COc1ccc(C2CC(c3ccc(Br)cc3)=NN2c2nc3ccc(S(N)(=O)=O)cc3s2)cc1` (stereo unspecified): the viability at 24 h, 20 µM in data set [4] is 86%. Besides, the inhibition at 20 µM in the data set with RAW264.7 [3] amounted to 38%.

Turning to `NS(=O)(=O)c1ccc2nc(N3N=C(c4ccc(Br)cc4)CC3c3ccc(Cl)cc3)sc2c1` (stereo unspecified), in data set [4], the viability at 24 h, 20 µM came out at 90%. The inhibition at 20 µM in the data set with RAW264.7 [3] was determined as 71.7%. For the same molecule, the Activity result in the data set with Rattus norvegicus [5] and with Rattus norvegicus [6] was “Non-toxic” in each case.

In the case of `Cc1ccc(-c2cc(C(F)(F)F)nn2-c2ccc(S(N)(=O)=O)cc2)cc1` [CELECOXIB], the inhibition in vivo at 20 mg/kg in the data set with Rattus norvegicus [1] came out at 67%. Further, in the data set with RAW264.7 [3], the inhibition at 20 µM amounted to 53.4%. Besides, the Activity entry in the data set with Rattus norvegicus [5] and in the data set with Rattus norvegicus [6] was “Non-toxic” throughout.
